Data taken from US10449221B2, “Differentiation of stem cells into thyroid tissue” (TRUSTEES OF BOSTON UNIVERSITY, priority 2015, dated 2019).
“Also recorded” adds a separate entry of the source.

Legend:
[1] = tested on: ESC-derived definitive endoderm; experiment: Nkx2-1+ endoderm induction from ESC-derived endoderm, specification media day 6-14, flow cytometry on day 14; format: cell-based, mouse; conditions: sequential withdrawal of each individual factor from the WFKBE+2 cocktail
Description: Definitive endoderm induction was performed in complete serum-free differentiation medium (cSFDM) consisting of 75% IMDM (Invitrogen 12440) and 25% Ham's Modified F12 medium (Cellgro 10-080-CV) supplemented with N2 and B27+RA (Invitrogen 17502-048 and 17504-44), 0.05% BSA (Invitrogen 15260-037), […] L-glutamine (Invitrogen 25030-081), 0.05 mg/ml ascorbic acid (Sigma A4544) and 4.5×10^-4M MTG (Sigma M6145) as previously described (Gouon-Evans et al., 2006, Longmire et al., 2012). Undifferentiated ESCs were trypsinized to form a single cell suspension and plated onto Petri dishes (500,000 cells/10 cm dish) resulting in the formation of embryoid bodies (EBs) over 60 hours. EBs were dissociated by trypsinization (0.05%, 1 min, 37° C.) and plated as single cells into cSFDM supplemented with 50 ng/ml Activin A (R&D systems 338-AC) for an additional 60 hours. For Anteriorization of endoderm, on day 5 (120 total hours of differentiation) EBs were plated onto p100 Petri dishes in Nog/SB media: cSFDM supplemented with 100 ng/ml mNoggin (R&D 1967-NG) and 10 μM SB431542 (Sigma S4317) as previously described (Longmire et al., 2012). For Nkx2-1+ endoderm induction, EBs were plated on gelatin coated 6 well plates at the equivalent density of 200,000 cells/well in Specification media: cSFDM supplemented as stated in the text with 100 ng/ml mWnt3a (R&D 1324-WN), 10 ng/ml hFGF10 (R&D 345-FG), 10 ng/ml mKGF (R&D 5028-KG), 10 ng/ml mBMP4 (R&D 5020-BP), 20 ng/ml hEGF (R&D 236-EG), 250 ng/ml mFGF2 (R&D 3139-FB) and 100 ng/ml Heparin Sodium Salt (Sigma […]2-1mCherry+ cells, or the populations otherwise indicated in the text were sorted using MoFlo or […] II SORP high speed cell sorters and replated onto gelatin-coated 24 well plates on day 12-14 at a density of 5×10^4 cells/well. Where indicated in the text, small molecule inhibitors were dissolved in DMSO according to manufacturer's instructions and added to the culture media from day 6 to 14 at the following working concentrations: Dorsomorphin 4 μM (Sigma P5499), PD98059 20 μM, SB203580 10 μM (both from Cell Signaling Technology, PHZ1164 and 5633), and LY294002 […] (Promega V1201).

[2] = tested on: ESC-derived Nkx2-1+ cells; experiment: Thyroid marker mRNA by real time RT-PCR on Day 26 after outgrowth of day 14 sorted Nkx2-1+ cells; format: cell-based, mouse; conditions: growth factors in specification media day 6 to 14; sorted day 14, replated until day 26
Description: For Anteriorization of endoderm, on day 5 (120 total hours of differentiation) EBs were plated onto p100 Petri dishes in Nog/SB media: cSFDM supplemented with 100 ng/ml mNoggin (R&D 1967-NG) and 10 μM SB431542 (Sigma S4317) as previously described (Longmire et al., 2012). For Nkx2-1+ endoderm induction, EBs were plated on gelatin coated 6 well plates at the equivalent density of 200,000 cells/well in Specification media: cSFDM supplemented as stated in the text with 100 ng/ml mWnt3a (R&D 1324-WN), 10 ng/ml hFGF10 (R&D 345-FG), 10 ng/ml mKGF (R&D 5028-KG), 10 ng/ml mBMP4 (R&D 5020-BP), 20 ng/ml hEGF (R&D 236-EG), 250 ng/ml mFGF2 (R&D 3139-FB) and 100 ng/ml Heparin Sodium Salt (Sigma […]2-1mCherry+ cells, or the populations otherwise indicated in the text were sorted using MoFlo or […] II SORP high speed cell sorters and replated onto gelatin-coated 24 well plates on day 12-14 at a density of 5×10^4 cells/well. […] Relative gene expression, normalized to 18S control, was calculated as fold change in 18S-normalized gene expression, over baseline, using the 2^(-ΔΔCT) method. […]

[3] = tested on: Nkx2-1GFP+; Pax8tdTomato trace+ iPSC-derived cells; experiment: Lineage specification of bifluorescent reporter iPSC line by day 14; format: cell-based, mouse; conditions: factor withdrawn or removed from the Nkx2-1 induction media, data not shown
[4] = tested on: hypothyroid mice; experiment: TSH response test; format: in vivo, mouse; conditions: T3 4 μg per 100 g body weight i.p. daily for 4 days; all groups; data not shown
Description: To suppress endogenous production of T4 and TSH, T3 (4 μg per 100 g body weight (BW); Sigma T6397) was given daily by intraperitoneal injection for 4 days. 15 hours after the last injection, blood was taken from the submandibular vein to measure T4 and TSH after which a single injection of highly purified bTSH (Los Angeles Biomedical Research Institute, National Hormone and Peptide Program. Torrance, Calif.) at 30 mU per 100 g BW was given. 3 hours later blood samples were taken to assess the increase of total T4. Five mice per group (positive control group, Sham, and D30 ESCs recipients) were included in the experiment.

[5] = tested on: Xenopus embryos; experiment: Xenopus whole embryo culture in pathway antagonists, in-situ hybridization for thyroid markers; format: in vivo; conditions: inhibitor from stage NF13 until NF20; DMH-1 40 μM, SU5402 10 μM
Description: Xenopus embryos were generated by in vitro fertilization and assayed by in situ hybridization or confocal immunostaining as previously described (Rankin et al., 2015). Small molecule inhibitors were dissolved in DMSO according to manufacturer's instructions and added to the embryo culture saline at the following working concentrations: 10 μM SU5402 (Tocris Bioscience), 40 μM DMH-1 (Sigma), 50 μM XAV939 (Sigma) and 10 μM BMS493 (Tocris Bioscience). Foregut explants were dissected from stage NF15 and treated with Dispase (BD Pharmingen) for 15 minutes and then the mesoderm was manually removed. Foregut endoderm was then cultured in 0.5× Modified Barth's Saline with 0.1% BSA with or without 500 ng/ml rhFGF2 and 50 ng/ml rhBMP4 (R&D systems).

[6] = tested on: mouse foregut explants; experiment: Mouse E8.5 whole foregut explant culture, whole mount immunostaining for Nkx2-1 and Pax8; format: cell-based; conditions: 6-8 somite foreguts, 2-3 days, DMH-1 1.5 μM vs DMSO
Description: (§1) Whole foreguts were dissected from E8.5 embryos (6-8 somite pairs) in Hank's balanced salt solution (HBSS) then explanted onto 8 μm pore size Whatman Nucleopore Track-Etch Membranes (Millipore). Explants were cultured for 2-3 days in a base medium (BGJb medium (Gibco)+10% fetal bovine serum (FBS, Sigma) and 0.2 mg/ml ascorbic acid) containing either the BMPR inhibitor DMH-1 (1.5 μM, Tocris) or DMSO as a vehicle control. Whole mount immunostaining was performed using a modification of the method of Ahnfelt-Ronne et al. (Ahnfelt-Ronne et al., 2007). The primary antibodies used were: guinea pig anti-Nkx2-1 (Seven Hill Bioreagents; 1:500), rabbit anti-Pax8 (Protein Tech; 1:500) and rat anti-Ecad (R&D; 1:2000). After staining, samples were cleared with Murray's clear (2:1 benzyl benzoate: benzyl alcohol) and imaged using a Nikon A1Rsi inverted laser confocal microscope. Imaris software was used to analyze the images. DMH-1 treated and control explants were harvested and lysed in Laemmli buffer after 24 hours of treatment. Lysates were electrophoresed on a 10-20% Tris-glycine gel under reducing conditions, Western blotted, and probed with antibodies (Cell Signaling) to detect total Smad1/5 and pSmad 1/5 content; β-actin content served as a loading control.

[7] = tested on: pSmad1/5; experiment: Western blot of pSmad1/5 content in mouse foregut explants; format: cell-based; conditions: 24 hours of treatment, DMH-1 1.5 μM vs vehicle
Description: as §1

With “Wingless-Type MMTV Integration Site Family protein, member 3A [Wnt3a]” the “Nkx2-1+ endodermal induction efficiency” value [1] was “dispensable for Nkx2-1 induction efficiency”, the “thyroid competence, thyroid marker mRNA on D26” value [2] was “does not alter thyroid lineage specification” and the “efficiency of lineage specification, percent yield of GFP+/tdTomato+ cells” value [3] was “no significant impact”.
In the case of `N[C@@H](Cc1cc(I)c(Oc2ccc(O)c(I)c2)c(I)c1)C(=O)O` [T3, Triiodothyronine], the “endogenous TSH and T4 after exogenous T3” value [4] is reported as “TSH suppression and abrogated T4 secretion”.
With `CC(C)Oc1ccc(-c2cnc3c(-c4ccnc5ccccc45)cnn3c2)cc1` [DMH-1] the “induction of thyroid markers foxe1, nkx2-1, pax2 and hhex” value [5] was “abrogated induction of all four thyroid markers in the vast majority of embryos”, the “induction of Nkx2-1 and Pax8, thyroid bud formation” value [6] was “no thyroid bud was apparent; also recorded: blocked induction of both Nkx2-1 and Pax8” and the “phosphorylation of SMAD1/5/8, pSmad1/5 content” value [7] was “substantial reduction in pSmad1/5 content; also recorded: marked reduction in phosphorylation of SMAD1/5/8”.
